Results as given in patent US9771334B2, “Triketone compound and preparation method and use thereof” (SHANDONG CYNDA CHEMICAL CO., LTD., priority 2013, dated 2017).

Tests used:
Format in all cases: in vivo
wheat = assay: Crop safety test (pot culture method); conditions: plants with about 4-5 leaves, investigated 15 days later
From the text: (§1) This test example is for describing crop safety of the compound with a structure shown in Formula (1). Crop safety test method (pot culture method): The test targets are wheat and maize. Take flowerpots with an inner diameter of 12 cm, put composite soil (vegetable garden soil:seedling matrix=1:2, v/v) into them till ¾ of flowerpot height, directly sow the crop seeds (budding rate>85%), cover them with 0.2 cm thick soil, and keep the plants for future use when they grow to have about 4-5 leaves. Each compound is dissolved in N,N-dimethylformamide at doses of 75 g/ha or 150 g/ha and diluted with distilled water containing 0.1% tween-80 emulsifier to form 0.1 g/L (75 g/ha) solution and 0.2 g/L (150 g/ha) solution respectively. The solutions are sprayed through an automatic spray tower. After the solutions on weed leaves are dried in the air, the flowerpots are moved into a greenhouse for cultivation. The result is investigated 15 days later.

maize = assay: Crop safety test (pot culture method); conditions: plants with about 4-5 leaves, investigated 15 days later
From the text: as §1

abutilon theophrasti = assay: Herbicidal activity, pot culture method (primary and secondary screening test); conditions: sprayed at 3-leaf stage; for inhibition ratio, Abutilon theophrasti: investigated 15 days later; for herbicidal activity inhibition ratio (%), Abutilon theophrasti: primary screening, pot culture, 150 g/ha, result 15 days later
In short: (§2)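 Inhibition ratio (%) was scored 15 days after post-emergence spraying of 3-leaf-stage weeds grown in pots of soil:seedling matrix (1:2). Dose was 150 g/ha from a 0.2 g/L DMF/water solution applied by spray tower. The secondary screening used the same method at a reduced dose.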

digitaria sanguinalis = assay: as above; conditions: sprayed at 3-leaf stage; for inhibition ratio, Digitaria sanguinalis: investigated 15 days later; for herbicidal activity inhibition ratio (%), Digitaria sanguinalis: primary screening, pot culture, 150 g/ha, result 15 days later
In short: as §2

amaranthus retroflexus = assay: as above; conditions: sprayed at 3-leaf stage; for inhibition ratio, Amaranthus retroflexus: investigated 15 days later; for herbicidal activity inhibition ratio (%), Amaranthus retroflexus: primary screening, pot culture, 150 g/ha, result 15 days later
In short: as §2

setaria viridis = assay: as above; conditions: for inhibition ratio, Setaria viridis / herbicidal activity inhibition ratio (%), Setaria viridis: sprayed at 3-leaf stage; for inhibition ratio, Setaria viridis: investigated 15 days later; for herbicidal activity inhibition ratio (%), Setaria viridis: primary screening, pot culture, 150 g/ha, result 15 days later
In short: as §2

echinochloa crusgalli = assay: as above; conditions: sprayed at 3-leaf stage; for inhibition ratio, Echinochloa crusgalli: investigated 15 days later; for herbicidal activity inhibition ratio (%), Echinochloa crusgalli: primary screening, pot culture, 150 g/ha, result 15 days later
In short: as §2

eclipta prostrata = assay: as above; conditions: sprayed at 3-leaf stage; for inhibition ratio, Eclipta prostrata: investigated 15 days later; for herbicidal activity inhibition ratio (%), Eclipta prostrata: primary screening, pot culture, 150 g/ha, result 15 days later
In short: as §2

Structure (SMILES)	inhibition ratio, Wheat (crop safety) (wheat; dose 75 g/ha)	inhibition ratio, Wheat (crop safety) (wheat; dose 150 g/ha)	inhibition ratio, Maize (crop safety) (maize; dose 75 g/ha)	inhibition ratio, Maize (crop safety) (maize; dose 150 g/ha)	inhibition ratio, Abutilon theophrasti (abutilon theophrasti; dose 37.5 g/ha)	inhibition ratio, Abutilon theophrasti (abutilon theophrasti; dose 75 g/ha)	herbicidal activity inhibition ratio (%), Abutilon theophrasti (abutilon theophrasti)	inhibition ratio, Digitaria sanguinalis (digitaria sanguinalis; dose 37.5 g/ha)	inhibition ratio, Digitaria sanguinalis (digitaria sanguinalis; dose 75 g/ha)	herbicidal activity inhibition ratio (%), Digitaria sanguinalis (digitaria sanguinalis)	inhibition ratio, Amaranthus retroflexus (amaranthus retroflexus; dose 37.5 g/ha)	inhibition ratio, Amaranthus retroflexus (amaranthus retroflexus; dose 75 g/ha)	herbicidal activity inhibition ratio (%), Amaranthus retroflexus (amaranthus retroflexus)	inhibition ratio, Setaria viridis (setaria viridis; dose 37.5 g/ha)	inhibition ratio, Setaria viridis (setaria viridis; dose 75 g/ha)	herbicidal activity inhibition ratio (%), Setaria viridis (setaria viridis)	inhibition ratio, Echinochloa crusgalli (echinochloa crusgalli; dose 37.5 g/ha)	inhibition ratio, Echinochloa crusgalli (echinochloa crusgalli; dose 75 g/ha)	inhibition ratio, Eclipta prostrata (eclipta prostrata; dose 37.5 g/ha)	inhibition ratio, Eclipta prostrata (eclipta prostrata; dose 75 g/ha)	also measured
CC(C)c1ccccc1-n1c(=O)c2cc(C(=O)C3=C(O)CCCC3=O)ccc2n(C)c1=O [Compound 65]	0%	10%	0%	10%	50%	70%	98%	30%	40%	100%	50%	60%	90%	80%	85%	98%	95%	100%	30%	50%	herbicidal activity inhibition ratio (%), Echinochloa crusgalli (echinochloa crusgalli): 80%; herbicidal activity inhibition ratio (%), Eclipta prostrata (eclipta prostrata): 80%
CCn1c(=O)n(-c2ccccc2C)c(=O)c2cc(C(=O)C3=C(O)CCCC3=O)ccc21 [Compound 66]	0%	10%	0%	5%	100%	100%	100%	60%	97.5%	95%	90%	100%	93%	97.5%	100%	100%	100%	100%	95%	100%	herbicidal activity inhibition ratio (%), Echinochloa crusgalli (echinochloa crusgalli): 100%; herbicidal activity inhibition ratio (%), Eclipta prostrata (eclipta prostrata): 95%
CCn1c(=O)n(-c2ccccc2C)c(=O)c2cc(C(=O)C3=C(O)CC(C)CC3=O)ccc21 (stereo not drawn) [Compound 70]	0%	10%	0%	15%	50%	73%	100%	80%	75%	90%	50%	70%	98%	83%	93%	100%	40%	55%	60%	78%	herbicidal activity inhibition ratio (%), Echinochloa crusgalli (echinochloa crusgalli): 100%; herbicidal activity inhibition ratio (%), Eclipta prostrata (eclipta prostrata): 100%
Cc1c(C(=O)C2=C(O)CC(C)(C)CC2=O)ccc2c1c(=O)n(-c1ccccc1C(F)(F)F)c(=O)n2C [Compound 91]	0%	10%	0%	10%	85%	93%	100%	70%	90%	100%	60%	80%	100%	100%	100%	100%	65%	90%	80%	93%	herbicidal activity inhibition ratio (%), Echinochloa crusgalli (echinochloa crusgalli): 100%; herbicidal activity inhibition ratio (%), Eclipta prostrata (eclipta prostrata): 100%
CS(=O)(=O)c1ccc(C(=O)C2C(=O)CCCC2=O)c([N+](=O)[O-])c1 [Mesotrione, mesotrione, reference compound]	10%	40%	7%	15%	100%	100%	–	40%	70%	–	70%	75%	–	0%	0%	–	50%	70%	75%	85%	prevention and control of setaria viridis (in words) (setaria viridis; secondary screening, 37.5 and 75 g/ha): cannot be prevented and controlled
